Results: patent publication US20120088737A2, “NOVEL ACYL GUANIDINE DERIVATIVES” (AJINOMOTO CO., INC, priority 2009, published 2012)

Tests used:
human NHE3 = target: T1, human NHE3 (Homo sapiens, UniProt P48764); test: Improved version of measurements of NHE3 inhibitory activities (OK26 ND cell lines); assay type: cell-based; settings: OK26 ND cell lines (opNHE1 expression reduced by 90%), measurement time 8 minutes at 26° C.; read-out: hNHE3 IC50
T1 construct: expressed in transfected cells; host or cells: OK26 cells (opossum kidney OK cells); OK26 ND sublines with opNHE1 reduced by 90% for A3
T1 sequence (P48764 26-834): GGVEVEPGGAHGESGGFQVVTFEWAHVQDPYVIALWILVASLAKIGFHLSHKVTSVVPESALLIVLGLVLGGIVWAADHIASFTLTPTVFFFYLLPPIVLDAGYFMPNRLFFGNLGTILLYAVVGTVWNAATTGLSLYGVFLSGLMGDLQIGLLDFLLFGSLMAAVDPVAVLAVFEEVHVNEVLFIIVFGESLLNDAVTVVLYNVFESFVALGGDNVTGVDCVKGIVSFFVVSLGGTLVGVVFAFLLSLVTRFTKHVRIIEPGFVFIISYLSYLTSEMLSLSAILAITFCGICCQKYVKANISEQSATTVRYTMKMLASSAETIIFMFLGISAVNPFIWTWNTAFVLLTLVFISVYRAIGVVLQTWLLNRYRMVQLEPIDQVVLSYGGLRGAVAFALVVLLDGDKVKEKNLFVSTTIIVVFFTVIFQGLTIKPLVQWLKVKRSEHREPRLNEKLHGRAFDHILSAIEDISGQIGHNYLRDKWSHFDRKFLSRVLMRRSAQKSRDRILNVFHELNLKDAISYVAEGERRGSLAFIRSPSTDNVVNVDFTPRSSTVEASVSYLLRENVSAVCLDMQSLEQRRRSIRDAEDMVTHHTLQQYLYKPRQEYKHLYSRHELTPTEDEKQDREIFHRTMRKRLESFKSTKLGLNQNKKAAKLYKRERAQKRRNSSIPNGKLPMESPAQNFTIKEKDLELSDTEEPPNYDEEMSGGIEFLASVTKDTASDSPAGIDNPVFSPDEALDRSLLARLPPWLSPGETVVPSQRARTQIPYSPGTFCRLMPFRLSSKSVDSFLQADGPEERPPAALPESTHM
Description: Pharmacological Test Example 3: Improved Version of Measurements of NHE3 Inhibitory Activities
OK26 cells express endogeneous NHE1 (opNHE1). In order to evaluate NHE3 inhibitory activities more precisely, OK26 ND cell lines in which the expression level of opNHE1 is reduced by 90% were established. Measurements of NEE inhibitory activities were carried out by using the established cell lines in the same manner as described in Pharmacological Test Example 1 except that the measurement time was 8 minutes (at 26° C.) to calculate more precise NHE3 inhibitory activities.

NHE1 = target: T2, NHE1 (Homo sapiens, UniProt P19634); test: Measurements of NHE1 inhibitory activities (HLF cells, BCECF pH recovery); assay type: cell-based; settings: HLF cells (human hepatoma cell line), measured after 10 minutes; read-out: hNHE1 IC50
T2 construct: HLF cells (Human hepatoma cell line) were used as cells for the test; endogenous in cells; host or cells: HLF cells (human hepatoma cell line)
Description: Pharmacological Test Example 1: Measurements of NHE1 Inhibitory Activities
HLF cells (Human hepatoma cell line) were used as cells for the test. After 1×10^4 cells/well were seeded to a 96-well plate and cultured for 3 days, they were cultured overnight under a serum-free medium. Then, the cells were incubated in a stain solution of Tetramethylammonium (TMA) Buffer (130 mM TMA-C1, 5 mM KCl, 2 mM CaCl2, 1 mM MgSO2, 25 mM glucose, 20 mM HEPES; pH 7.4) containing 40 mM NH4Cl and 1 μg/mL pH-sensitive fluorescent indicator BCECF-AM at 37° C. for 40 minutes and then BCECF was introduced into the cells. After the cells were washed once with TMA Buffer and incubated in TMA+40 mM NH4Cl solution at 37° C. for 15 minutes, the solution was removed and 20 μL/well of TMA Buffer and 10 μL/well of each test compound solution prepared with TMA Buffer were added to each well. The measurements were carried out by adding 200 μL/well of Na Buffer (130 mM, NaCl, 5 mM KCl, 2 mM CaCl2, 1 mM MgSO2, 1 mM NaH2PO4, 25 mM glucose, 20 mM HEPES; pH 7.4) or TMA Buffer (for base measurement), immediately placing it on FlexStation (Molecular Device) and then, after 10 minutes, measuring, it the two wavelengths of 505 nm (excitation wavelength)/530 nm (emission wavelength) (measurement value) and 440 nm (excitation wavelength)/530 nm (emission wavelength) (isosbestic point value). A NHE activity was calculated by dividing a measurement value by an isosbestic point value and a NHE1 inhibitory activity was calculated by the following equation. NHE1 inhibitory activity (%)=100×(1−(Measurement value [addition of each compound]−Base [addition of TMA Buffer])/(Control [addition of Na Buffer]−Base [addition of TMA Buffer]))

T2 sequence (P19634 whole entry): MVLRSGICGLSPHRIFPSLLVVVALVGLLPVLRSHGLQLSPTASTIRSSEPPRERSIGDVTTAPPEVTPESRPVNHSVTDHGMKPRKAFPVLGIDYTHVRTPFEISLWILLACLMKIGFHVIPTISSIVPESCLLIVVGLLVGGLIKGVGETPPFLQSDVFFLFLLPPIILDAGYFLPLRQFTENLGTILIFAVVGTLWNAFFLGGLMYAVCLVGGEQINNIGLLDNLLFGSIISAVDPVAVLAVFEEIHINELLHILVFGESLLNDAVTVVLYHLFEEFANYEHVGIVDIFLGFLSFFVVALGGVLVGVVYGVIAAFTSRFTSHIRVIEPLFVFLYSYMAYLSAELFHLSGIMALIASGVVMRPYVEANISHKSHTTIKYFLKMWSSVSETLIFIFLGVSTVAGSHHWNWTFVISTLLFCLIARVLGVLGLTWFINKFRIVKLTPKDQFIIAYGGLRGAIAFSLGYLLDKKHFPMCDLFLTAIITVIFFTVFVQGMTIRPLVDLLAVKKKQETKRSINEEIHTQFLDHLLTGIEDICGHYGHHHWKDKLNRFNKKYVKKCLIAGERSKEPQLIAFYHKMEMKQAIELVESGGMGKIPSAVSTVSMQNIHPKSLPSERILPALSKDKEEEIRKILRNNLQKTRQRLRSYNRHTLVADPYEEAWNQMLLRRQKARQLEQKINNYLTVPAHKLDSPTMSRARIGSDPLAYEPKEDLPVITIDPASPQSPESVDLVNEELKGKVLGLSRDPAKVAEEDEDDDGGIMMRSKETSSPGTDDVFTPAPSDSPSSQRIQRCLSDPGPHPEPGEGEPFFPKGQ

SMILES | IC50 (human NHE3) | IC50 (NHE1)
C/C(=C\c1ccccc1-c1ccc(CO)cc1)C(=O)NC(=N)N [Example 6, N-[(E)-3-(4′-hydroxymethyl-biphenyl-2-yl)-2-methyl-acryloyl]-guanidine] | 400 nM | 
C/C(=C\c1ccccc1-c1cccc(C(=O)NO)c1)C(=O)NC(=N)N [Example 55, (E)-2′-(3-guanidino-2-methyl-3-oxo-propenyl)-biphenyl-3-carboxylic acid hydroxyamide] | 440 nM | 2900 nM
C/C(=C\c1ccccc1-c1ccc(C(=N)N)cc1)C(=O)NC(=N)N [Example 56, (E)-2′-(3-guanidino-2-methyl-3-oxo-propenyl)-biphenyl-4-carboxamidine] | 400 nM | 3400 nM
C/C(=C\c1ccccc1-c1ccc(C(=N)N)cc1C)C(=O)NC(=N)N [Example 57, (E)-2′-(3-guanidino-2-methyl-3-oxo-propenyl)-2-methyl-biphenyl-4-carboxamidine] | 100 nM | 1100 nM
C/C(=C\c1ccccc1-c1ccc(O)cc1F)C(=O)NC(=N)N [Example 59, N-[(E)-3-(2′-fluoro-4′-hydroxy-biphenyl-2-yl)-2-methyl-acryloyl]-guanidine] | 280 nM | 3200 nM
C/C(=C\c1ccc(Oc2ccc(S(N)(=O)=O)cc2)cc1-c1cccc(O)c1)C(=O)NC(=N)N [Example 64, 4-[(E)-6-(3-guanidino-2-methyl-3-oxo-propenyl)-3′-hydroxy-biphenyl-3-yloxy]-benzenesulfonamide] | 150 nM | 1300 nM
C/C(=C\c1ccc(Oc2ccc(S(N)(=O)=O)cc2)cc1-c1ccc(O)cc1)C(=O)NC(=N)N [Example 65, 4-[(E)-6-(3-guanidino-2-methyl-3-oxo-propenyl)-4′-hydroxy-biphenyl-3-yloxy]-benzenesulfonamide] | 210 nM | 1500 nM
C/C(=C\c1c(Br)cccc1-c1ccc(O)cc1)C(=O)NC(=N)N [Example 70, N-[(E)-3-(3-bromo-4′-hydroxy-biphenyl-2-yl)-2-methyl-acryloyl]-guanidine] | 960 nM | 
C/C(=C\c1ccc(Oc2ccc(O)cc2)cc1-c1ccc(O)cc1)C(=O)NC(=N)N [Example 71, N-{(E)-3-[4′-hydroxy-5-(4-hydroxy-phenoxy)-biphenyl-2-yl]-2-methyl-acryloyl}-guanidine] | 130 nM | 1300 nM
C/C(=C\c1ccc(-c2ccc(O)cc2)cc1-c1ccc(O)cc1)C(=O)NC(=N)N [Example 72, N-[(E)-3-(2,4-di(4-hydroxyphenyl)-phenyl)-2-methyl-acryloyl]-guanidine] | 87 nM | 1100 nM
C/C(=C\c1ccc(-c2ccoc2)cc1)C(=O)NC(=N)N [Example 85, N-[(E)-3-(4-furan-3-yl-phenyl)-2-methyl-acryloyl]-guanidine] | 470 nM | 
C/C(=C\c1ccc(-c2ccc(CO)cc2)cc1)C(=O)NC(=N)N [Example 93] | 250 nM | 

Next, values leading:

IC50 (human NHE3) | IC50 (NHE1) | SMILES
610 nM | 2600 nM | COc1cc(-c2ccccc2/C=C(\C)C(=O)NC(=N)N)ccc1O [Example 23, N-[(E)-3-(4′-hydroxy-3′-methoxy-biphenyl-2-yl)-2-methyl-acryloyl]guanidine]
740 nM | 2900 nM | C/C(=C\c1ccccc1-c1ccc(O)cc1O)C(=O)NC(=N)N [Example 53, N-[(E)-3-(2′,4′-hydroxy-2-yl)-2-methyl-acryloyl]-guanidine]
9 nM | 200 nM | C/C(=C\c1ccccc1-c1ccc(C(=N)N)c(F)c1)C(=O)NC(=N)N [Example 58, (E)-3-fluoro-2′-(3-guanidino-2-methyl-3-oxo-propenyl)-biphenyl-4-carboxamidine]
310 nM | 910 nM | C/C(=C\c1ccccc1-c1ccc(O)cc1Cl)C(=O)NC(=N)N [Example 60, N-[(E)-3-(2′-chloro-4′-hydroxy-biphenyl-2-yl)-2-methyl-acryloyl]-guanidine]
400 nM | 4300 nM | C/C(=C\c1ccccc1-c1ccc(O)c(C)c1)C(=O)NC(=N)N [Example 61, N-[(E)-3-(4′-hydroxy-3′-methyl-biphenyl-2-yl)-2-methyl-acryloyl]-guanidine]
92 nM | 1300 nM | C/C(=C\c1ccc(C)cc1-c1ccc(O)c(F)c1)C(=O)NC(=N)N [Example 62, N-[(E)-3-(3′-fluoro-4′-hydroxy-5-methylbiphenyl-2-yl)-2-methyl-acryloyl]-guanidine]
330 nM | 9900 nM | C/C(=C\c1ccc(C)cc1-c1ccc(F)c(O)c1)C(=O)NC(=N)N [Example 63, N-[(E)-3-(4′-fluoro-3′-hydroxy-5-methyl-biphenyl-2-yl)-2-methyl-acryloyl]-guanidine]
130 nM |  | COc1cc(-c2cc(C)ccc2/C=C(\C)C(=O)NC(=N)N)ccc1O [Example 66, N-[(E)-3-(4′-hydroxy-3′-methoxy-5-methyl-biphenyl-2-yl)-2-methyl-acryloyl]-guanidine]
120 nM | 2100 nM | C/C(=C\c1cccc(C)c1-c1ccc(O)cc1)C(=O)NC(=N)N [Example 67, N-[(E)-3-(4′-hydroxy-6-methyl-biphenyl-2-yl)-2-methyl-acryloyl]-guanidine]
120 nM | 1700 nM | C/C(=C\c1cccc(C)c1-c1cccc(O)c1)C(=O)NC(=N)N [Example 68, N-[(E)-3-(3′-hydroxy-6-methyl-biphenyl-2-yl)-2-methyl-acryloyl]-guanidine]
100 nM | 580 nM | C/C(=C\c1ccc(C)cc1-c1ccc(O)c(O)c1)C(=O)NC(=N)N [Example 69, N-[(E)-3-(3′,4′-dihydroxy-5-methyl-biphenyl-2-yl)-2-methyl-acryloyl]-guanidine]
120 nM |  | COc1ccc(/C=C(\C)C(=O)NC(=N)N)c(-c2ccc(O)cc2)c1 [Example 73, N-[(E)-3-(4′-hydroxy-5-methoxy-biphenyl-2-yl)-2-methyl-acryloyl]-guanidine]
300 nM |  | C/C(=C\c1ccc(-c2ccc(O)cc2C)cc1)C(=O)NC(=N)N [Example 90, N-[(E)-3-(4′-hydroxy-2′-methyl-biphenyl-4-yl)-2-methyl-acryloyl]-guanidine]
190 nM |  | C/C(=C\c1ccc(-c2cc(O)ccc2F)cc1)C(=O)NC(=N)N [Example 91, N-[(E)-3-(2′-fluoro-5′-hydroxy-biphenyl-4-yl)-2-methyl-acryloyl]-guanidine]
150 nM |  | C/C(=C\c1ccc(-c2ccc(O)c(O)c2)cc1)C(=O)NC(=N)N [Example 92, N-[(E)-3-(3′,4′-dihydroxy-biphenyl-4-yl)-2-methyl-acryloyl]-guanidine]
240 nM |  | C/C(=C\c1ccc(-c2ccc(O)cc2)cc1C)C(=O)NC(=N)N [Example 95, N-[(E)-3-(4′-hydroxy-3-methyl-biphenyl-4-yl)-2-methyl-acryloyl]-guanidine]
200 nM |  | C/C(=C\c1ccc(-c2ccc(O)cc2C)cc1C)C(=O)NC(=N)N [Example 96, N-[(E)-3-(4′-hydroxy-3,2′-dimethyl-biphenyl-4-yl)-2-methyl-acryloyl]-guanidine]
